Literature values, collected in publication PMC10034008, “Pretargeted imaging beyond the blood–brain barrier” (RSC Medicinal Chemistry, 2022).

Set-up: method as in ESI 3, 4
Conditions: irreversible tracers in their respective target regions; ref ESI 3, 4

Structure (SMILES)	trapping rate k3 [min⁻¹]
[11CH3]N1CN(c2ccccc2)C2(CCN(CCCC(=O)c3ccc(F)cc3)CC2)C1=O [N-[11C]methylspiperone]	0.06
CCC(=O)OC1CCN([11CH3])CC1 [[11C]PMP]	0.03 to 0.35
